Data: patent US10124004B2, “Pyrido[3,4-d]pyrimidine derivative and pharmaceutically acceptable salt thereof” (Teijin Pharma Limited, priority 2015, dated 2018)
Where two headings read alike, the source gives them in different places.

Assays:
CDK4/cyclin D3 = target: T1, CDK4/cyclin D3 (Homo sapiens, UniProt P11802); test: Human CDK4/cyclin D3 inhibitory activity (QS S Assist CDK4/Cyclin D3_FP Kit, IMAP fluorescence polarization); format: biochemical
T1 construct: purchased Carna Biosciences, Inc. QS S Assist CDK4/Cyclin D3_FP Kit
T1 sequence (P11802 whole entry): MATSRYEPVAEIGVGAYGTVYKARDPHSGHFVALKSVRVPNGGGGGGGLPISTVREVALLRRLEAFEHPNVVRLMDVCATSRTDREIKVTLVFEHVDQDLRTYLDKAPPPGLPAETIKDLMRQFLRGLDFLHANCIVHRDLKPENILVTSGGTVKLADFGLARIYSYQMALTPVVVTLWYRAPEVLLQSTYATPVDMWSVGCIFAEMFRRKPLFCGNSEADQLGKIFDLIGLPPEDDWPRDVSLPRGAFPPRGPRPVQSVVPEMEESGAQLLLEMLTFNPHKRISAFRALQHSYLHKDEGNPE
T1 sequence (P30281 whole entry partner): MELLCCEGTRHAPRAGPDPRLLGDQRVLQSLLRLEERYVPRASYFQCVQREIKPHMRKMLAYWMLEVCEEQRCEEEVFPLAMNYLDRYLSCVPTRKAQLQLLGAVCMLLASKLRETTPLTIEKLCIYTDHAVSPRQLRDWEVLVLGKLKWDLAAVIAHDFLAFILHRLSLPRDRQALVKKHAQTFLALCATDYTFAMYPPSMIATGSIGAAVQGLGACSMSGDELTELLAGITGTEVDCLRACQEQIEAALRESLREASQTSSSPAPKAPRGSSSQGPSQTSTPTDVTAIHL
How it was run: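 IMAP fluorescence polarization kit: CDK4/cyclin D3 at 12.5-25 ng/well with kit ATP/substrate/metal mix in 20 mM HEPES pH 7.4, 0.01% Tween20, 2 mM DTT, 45 min at room temperature. FP read at 485/535 nm after 30 min binding; IC50 from dose-response fit of percent inhibition versus enzyme and no-enzyme controls.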

CDK2/cyclin A2 = target: T2, CDK2/cyclin A2 (Homo sapiens, UniProt P24941); test: Human CDK2/cyclin A2 inhibitory activity (QS S Assist CDK2/Cyclin A2_FP Kit, IMAP fluorescence polarization); format: biochemical
T2 construct: purchased Carna Biosciences, Inc. QS S Assist CDK2/Cyclin A2_FP Kit
How it was run: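 Kinase activity read as fluorescence polarization (485/535 nm) after phosphorylated fluorescent substrate binds IMAP reagent (30 min, RT, dark). Enzyme (2.5 ng/well) reacted 60 min at RT with ATP/substrate/metal in HEPES pH 7.4 buffer with Tween 20 and DTT; no-enzyme wells define 0% activity; IC50 by curve fit.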

[1] = 50% inhibitory concentration against CDK4/cyclin D3, given as class symbol
[2] = 50% inhibitory concentration against CDK2/cyclin A2, given as class symbol
[3] = Human CDK4/cyclin D3 inhibitory activity, read-out: CDK4 Activity symbol
[4] = Human CDK2/cyclin A2 inhibitory activity, read-out: CDK2 Activity symbol

Row | IC50 (CDK4/cyclin D3; [1]) [nM] | IC50 (CDK2/cyclin A2; [2]) [nM] | IC50 (CDK4/cyclin D3; [3]) [nM] | IC50 (CDK2/cyclin A2; [4]) [nM] | SMILES
1 | < 10 | ≥ 100 |  |  | c1cc(N2CCNCC2)nnc1Nc1ncc2cc(C3CCOC3)nc(N[C@H]3CCCOC3)c2n1 (some centres unmarked) [Compound 878]
2 |  |  | < 10 | ≥ 100 | COC(C)c1cc2cnc(Nc3ccc(N4CCNCC4)cn3)nc2c(NC(C)C)n1 (centres unmarked) [Compound 37]
3 | < 10 | ≥ 100 |  |  | C[C@@H](O)c1cc2cnc(Nc3ccc(CN4CCN(CCO)CC4)cn3)nc2c(NC2CCCC2)n1 [Compound 1070]
4 | < 10 | ≥ 100 |  |  | C[C@@H](O)c1cc2cnc(Nc3ccc(CN4CCN(CCO)CC4)cn3)nc2c(NC23CC(C2)C3)n1 [Compound 1205]
5 | < 10 | ≥ 100 |  |  | CC(C)Nc1nc([C@@H](C)O)cc2cnc(Nc3ccc(N4CC(C)(CO)C4)nn3)nc12 [Compound 668]
6 | < 10 | ≥ 100 |  |  | CC(C)Nc1nc([C@@H](C)O)cc2cnc(Nc3ccc(CN4CCN(C(=O)C5CCOC5)CC4)cn3)nc12 (some centres unmarked) [Compound 1193]
7 |  |  | ≥ 100 | ≥ 100 | CC(C)Nc1nc(C(F)F)cc2cnc(Nc3ccc(CN4CC(O)C4)cn3)nc12 [Compound 126]
8 | < 10 | ≥ 100 |  |  | CCCCNc1nc([C@@H](C)O)cc2cnc(Nc3ccc(CN4CCC(O)CC4)cn3)nc12 [Compound 1061]
9 | 10 to 100 | ≥ 100 |  |  | CC(C)Nc1nc([C@@H](C)O)cc2cnc(Nc3ccc(N4CCC(CC(=O)O)CC4)nn3)nc12 [Compound 797]
10 |  |  | < 10 | ≥ 100 | C[C@@H](O)c1cc2cnc(Nc3ccc(N4CCN(C=O)CC4=O)cn3)nc2c(N[C@H]2CCCOC2)n1 [Compound 352]
11 | < 10 | ≥ 100 |  |  | C[C@@H](O)c1cc2cnc(Nc3ccc(N4CCNCC4=O)cn3)nc2c(NCCCF)n1 [Compound 1079]
12 |  |  | < 10 | ≥ 100 | CC(C)Nc1nc(C(C)O)cc2cnc(Nc3ccc(N4CCN(CCO)CC4)cn3)nc12 (centres unmarked) [Compound 74]
13 | < 10 | ≥ 100 |  |  | CC1(c2cc3cnc(Nc4ccc(CN5CCNCC5)cn4)nc3c(NCC3CC3)n2)COC1 [Compound 1109]
14 | 10 to 100 | ≥ 100 |  |  | CCC(OC)c1cc2cnc(Nc3ccc(N4CCNCC4)nn3)nc2c(NC(C)C)n1 (centres unmarked) [Compound 1069]
15 | 10 to 100 | ≥ 100 |  |  | CC(C)Nc1nc([C@@H](C)O)cc2cnc(Nc3ccc(N4CCCC(C(=O)O)C4)cn3)nc12 (some centres unmarked) [Compound 835]
16 | < 10 | ≥ 100 |  |  | C[C@@H](O)c1cc2cnc(Nc3ccc(N4CCNCC4=O)cn3)nc2c(NC2CCCC2)n1 [Compound 1078]
17 | < 10 | ≥ 100 |  |  | c1cc(Nc2ncc3cc(C4CCOC4)nc(N[C@H]4CCCOC4)c3n2)ncc1CN1CCNCC1 (some centres unmarked) [Compound 882]
18 |  |  | < 10 | ≥ 100 | CC(C)Nc1nc([C@@H](C)O)cc2cnc(Nc3ccc(CN4CCN(CCO)CC4)cn3)nc12 [Compound 555]
19 | < 10 | ≥ 100 |  |  | CC1(c2cc3cnc(Nc4ccc5c(n4)CCN(C(=O)CO)C5)nc3c(N[C@H]3CC[C@H](O)CC3)n2)COC1 [Compound 1146]
20 | < 10 | ≥ 100 |  |  | C[C@@H](O)c1cc2cnc(Nc3ccc(CN4CCC(CO)CC4)cn3)nc2c(NC2CCC2)n1 [Compound 1150]

Row | IC50 (CDK4/cyclin D3; [1]) [nM] | IC50 (CDK2/cyclin A2; [2]) [nM] | IC50 (CDK4/cyclin D3; [3]) [nM] | IC50 (CDK2/cyclin A2; [4]) [nM] | SMILES
21 | < 10 | ≥ 100 |  |  | CC1(c2cc3cnc(Nc4ccc(N5CCNCC5)nn4)nc3c(N[C@H]3CCCOC3)n2)COC1 [Compound 880]
22 |  |  | < 10 | ≥ 100 | CC(C)Nc1nc([C@@H](C)O)cc2cnc(Nc3ccc(OCC(=O)N4CCNCC4)cn3)nc12 [Compound 559]
23 | < 10 | ≥ 100 |  |  | C[C@@H](O)c1cc2cnc(Nc3ccc(N4CCNCC4=O)cn3)nc2c(NCC2CCCOC2)n1 (some centres unmarked) [Compound 691]
24 | < 10 | ≥ 100 |  |  | CC1(c2cc3cnc(Nc4ccc5c(n4)CCN(C(=O)CO)C5)nc3c(N[C@H]3CCCOC3)n2)COC1 [Compound 1115]
25 |  |  | < 10 | 10 to 100 | CC(C)Nc1nc(C(F)F)cc2cnc(Nc3ccc(N4CCNCC4=O)cn3)nc12 [Compound 89]
26 | 10 to 100 | ≥ 100 |  |  | CCNc1nc([C@@H](C)OC)cc2cnc(Nc3ccc4c(n3)CCN(C(=O)CO)C4)nc12 [Compound 1112]
27 |  |  | < 10 | ≥ 100 | CO[C@H](C)c1cc2cnc(Nc3ccc(CN4CC[C@@H](O)C4)cn3)nc2c(NC(C)C)n1 [Compound 270]
28 |  |  | < 10 | ≥ 100 | COCC(C)(C)Nc1nc([C@@H](C)O)cc2cnc(Nc3ccc(N4CCNCC4)nn3)nc12 [Compound 212]
29 | < 10 | ≥ 100 |  |  | C[C@@H](O)c1cc2cnc(Nc3ccc(N4CCNCC4)nn3)nc2c(NC2(C)CC2)n1 [Compound 1175]
30 | < 10 | ≥ 100 |  |  | CC(C)Nc1nc([C@@H](C)O)cc2cnc(Nc3ccc(N4CC(O)C4)nn3)nc12 [Compound 666]
31 | < 10 | ≥ 100 |  |  | CCCNc1nc([C@@H](C)O)cc2cnc(Nc3ccc(CN4CCN(CCO)[C@@H](C)C4)cn3)nc12 [Compound 1208]
32 | < 10 | ≥ 100 |  |  | C[C@@H](O)c1cc2cnc(Nc3ccc(CN4CCCC(O)C4)cn3)nc2c(NCC2CCOCC2)n1 (some centres unmarked) [Compound 1087]
33 | < 10 | ≥ 100 |  |  | C[C@@H](O)c1cc2cnc(Nc3ccc(N4CCN(C)CC4)nn3)nc2c(NC(C)(C)CO)n1 [Compound 1101]
34 |  |  | < 10 | ≥ 100 | CO[C@H](C)c1cc2cnc(Nc3ccc(C(C)N4CCNCC4)cn3)nc2c(NC(C)C)n1 (some centres unmarked) [Compound 266]
35 | < 10 | ≥ 100 |  |  | CO[C@H](C)c1cc2cnc(Nc3ccc(N4CCN(C(=O)C5CCCO5)CC4)nn3)nc2c(NC(C)C)n1 (some centres unmarked) [Compound 1176]
36 | 10 to 100 | ≥ 100 |  |  | CO[C@H](C)c1cc2cnc(Nc3ccc(N4CCN(C5COC5)CC4)nn3)nc2c(NC(C)C)n1 [Compound 680]
37 | < 10 | ≥ 100 |  |  | CC(C)Nc1nc([C@@H](C)O)cc2cnc(Nc3ccc(N4CCNC(C(C)C)C4=O)cn3)nc12 (some centres unmarked) [Compound 732]
38 |  |  | < 10 | 10 to 100 | CC(C)Nc1nc(C(F)F)cc2cnc(Nc3ccc(CN4CCNCC4=O)cn3)nc12 [Compound 205]
39 | < 10 | ≥ 100 |  |  | Cc1nc(Nc2ncc3cc([C@@H](C)O)nc(NCC(C)C)c3n2)ccc1N1CCNCC1 [Compound 1093]
40 |  |  | 10 to 100 | ≥ 100 | C[C@@H](O)c1cc2cnc(Nc3ccc(N4CCNCC4)nn3)nc2c(NC2CCS(=O)(=O)CC2)n1 [Compound 322]

Row | IC50 (CDK4/cyclin D3; [1]) [nM] | IC50 (CDK2/cyclin A2; [2]) [nM] | IC50 (CDK4/cyclin D3; [3]) [nM] | IC50 (CDK2/cyclin A2; [4]) [nM] | SMILES
41 |  |  | < 10 | ≥ 100 | C[C@@H](O)c1cc2cnc(Nc3ccc(N4CCNCC4)nn3)nc2c(N[C@H]2CC[C@H](O)CC2)n1 [Compound 340]
42 |  |  | < 10 | 10 to 100 | CC(C)Nc1nc(C(F)F)cc2cnc(Nc3ccc(N4C[C@@H](O)CC4=O)cn3)nc12 [Compound 184]
43 | < 10 | ≥ 100 |  |  | CCCCNc1nc([C@@H](C)O)cc2cnc(Nc3ccc(CN4CCC[C@@H](O)C4)cn3)nc12 [Compound 1185]
44 |  |  | < 10 | ≥ 100 | CC(O)c1cc2cnc(Nc3ccc(N4CCNCC4)cn3)nc2c(NC(C)(C)CO)n1 (centres unmarked) [Compound 45]
45 | < 10 | ≥ 100 |  |  | CC(C)Nc1nc([C@@H](C)O)c(Cl)c2cnc(Nc3ccc(N4CCCNCC4=O)cn3)nc12 [Compound 750]
46 |  |  | < 10 | ≥ 100 | CC(C)Nc1nc([C@@H](C)O)cc2cnc(Nc3ccc(N4CCC(O)CC4)nn3)nc12 [Compound 260]
47 | < 10 | ≥ 100 |  |  | COC1CCC(Nc2nc([C@@H](C)O)cc3cnc(Nc4ccc(N5CCN(C)CC5)nn4)nc23)CC1 (some centres unmarked) [Compound 641]
48 |  |  | < 10 | ≥ 100 | CNC1CCN(c2ccc(Nc3ncc4cc(C(C)O)nc(NC(C)C)c4n3)nn2)CC1F (centres unmarked) [Compound 610]
49 | 10 to 100 | ≥ 100 |  |  | CNCCOc1ccc(Nc2ncc3c(Cl)c([C@@H](C)O)nc(N[C@@H](C)COC)c3n2)nc1 [Compound 758]
50 |  |  | < 10 | ≥ 100 | CO[C@H](C)c1cc2cnc(Nc3ccc(N4CCNCC4=O)cn3)nc2c(NC(C)C)n1 [Compound 207]
51 |  |  | < 10 | ≥ 100 | C[C@@H](O)c1nc(NC2CCOCC2)c2nc(Nc3ccc(N4CCNCC4)nn3)ncc2c1Cl [Compound 337]
52 |  |  | < 10 | 10 to 100 | CC(C)Nc1nc(C(F)F)cc2cnc(Nc3ccc(CN4CCC(C(C)(C)O)CC4)cn3)nc12 [Compound 118]
53 |  |  | < 10 | ≥ 100 | CO[C@H](C)c1cc2cnc(Nc3ccc(N4CCCC(N)C4=O)cn3)nc2c(NC(C)C)n1 (some centres unmarked) [Compound 591]
54 | 10 to 100 | ≥ 100 |  |  | CC(C)Nc1nc([C@@H](C)O)cc2cnc(Nc3ccc(N4CCN[C@H](C(C)C)C4=O)cn3)nc12 [Compound 766]
55 |  |  | < 10 | ≥ 100 | C[C@@H](O)c1nc(N[C@H]2CCCOC2)c2nc(Nc3ccc(CN4CCNCC4)cn3)ncc2c1Cl [Compound 369]
56 |  |  | < 10 | ≥ 100 | CN(C)CCOc1ccc(Nc2ncc3cc(C(F)F)nc(NC4CCCOC4)c3n2)nc1 (centres unmarked) [Compound 366]
57 | 10 to 100 | ≥ 100 |  |  | COC(=O)N1CCN(c2ccc(Nc3ncc4cc([C@@H](C)OC)nc(N[C@H]5CCCOC5)c4n3)nn2)CC1 [Compound 1056]
58 | < 10 | ≥ 100 |  |  | CNC(=O)CN1CCN(Cc2ccc(Nc3ncc4cc([C@@H](C)O)nc(NC(C)C)c4n3)nc2)CC1 [Compound 1017]
